Experimental data as given in patent US20240174714A1, “TREATMENT OF SKIN DISORDERS” (priority 2021, published 2024).
Values after ≈ are worked out from the molar mass of the structure shown. Square brackets hold non-standard residues; d marks the D form. Peptide text beside a SMILES is read from it. * marks the point of attachment. NH(1-CH2NMe2-cBu) = CN(C)CC1(N*)CCC1; Benzoyl(4-F) = O=C(c1ccc(F)cc1)*; hCha = N[C@@H](CCC1CCCCC1)C(=O)O; Aib = CC(C)(N)C(=O)O; βAla = NCCC(=O)O

Assays:
[1] = after 48 hours; donor 0.1% 6027 in DMSO; acceptor PBS + 2% Volpo; % of total 6027
Method: The ears were washed with tap water and the hairs were removed with an electric clipper. The skin was separated from the underlying cartilage from the backside of the ear by using a scalpel. After washing the skin again, it was stored in aluminium foil at −20° C. for no longer than one month.
After thawing the frozen skin, it was cut into adequate circles and the skin thickness was measured with a calliper. The skin was mounted into the FDC, tightly sealed with Teflon band and fixed in special designed holder. Then the acceptor compartment was equipped with a magnetic stirrer, filled with placebo formulation and equilibrated for one hour. To check the barrier integrity and to be sure that there are no invisible damages from skin preparation TEWL (transepidermal water loss) was measured. The FDCs were then placed in the water bath +32° C. ±1 over a magnetic stirrer (500 rpm). Due to differences of each FDC, the skin application area for drug permeation was measured and calculated for each cell in advance. Consequently, the amount of 6027 for the donor compartment had to be adjusted for the infinite-dose experiment to 284.1 μL/cm^2.
At predefined time points 50 μL samples were taken from the acceptor compartment. The missing volume was replaced with the corresponding placebo formulation.
At the end of the permeation experiment and before reassembling the FDCs, the donor compartments were washed out with 10 mL ACN:H2O (55:45).
To extract 6027 from the skin, the frozen skin was cut into small pieces and grinded by a cryogenic grinder Freezer/Mill® from Spex SamplePrep (Metuchen, USA). The setting was 10 min precooling and a rate of 10 CPS for 4 cycles with 2 minutes. The resulting powder was resuspended in 2 mL ACN:H2O (55:45). After being vortex, the mixtures were ultrasonicated with Branson Sonifier 250 (model: 101-cx03-197) from Branson Ultrasonics Corporation (Danbury, USA). The setting for ultrasonification was output control 2 and duty cycle 30% for 60 seconds. […]
The concentrations of 6027 were determined by using HPLC-MS from Agilent Technologies. […]

physchem [2] = conditions: octanol/water
[3] = system: Staphylococcus epidermidis ATCC 12228; assay: MIC broth microdilution, method 1; assay type: cell-based; conditions: 6027 acetate
[4] = system: axenic Leishmania donovani MHOM-ET-67/L82 amastigotes; assay: In vitro antiprotozoal assay, axenic amastigotes; assay type: cell-based; conditions: axenic amastigotes; read-out: L.don.ax. IC50
Method: (§1) The testing of the inventive compounds against Leishmania donovani (strain MHOM/ET/67/L82) was performed in 96 well plates at concentrations in serial dilutions. Tests were done in triplicate.

physchem [5] = conditions: water
[6] = system: intracellular Leishmania donovani MHOM-ET-67/L82 amastigotes; assay: In vitro antiprotozoal assay, intracellular amastigotes; assay type: cell-based; conditions: intracellular amastigotes; read-out: L.don.InMac IC50
Method: as §1

[7] = system: S. aureus (USA300 MRSA, BAA-1556); assay: S. aureus dermal infection model in ICR mice, CFU/skin; assay type: in vivo, Staphylococcus aureus; conditions: 25 hours post inoculation; topical BID at 1 and 7 h post infection, 20 μL/mouse; 6027 1% in DMSO, fusidic acid 2%
Method: Inoculum preparation. The testing strain, S. aureus USA300 MRSA (BAA-1556), was obtained from the frozen working stock and thawed at room temperature. A 0.2 mL aliquot was inoculated into 20 mL Brain-Heart Infusion broth (BHI) and then incubated at 35-37° C. with shaking (120 rpm) for 8 h. Bacterial cells in the 20 mL culture were pelleted by centrifugation at 3,500×g for 15 minutes and then re-suspended in 10 mL cold PBS (>8.0×10^9 CFU/mL, OD620 1.8-2.0). The culture was then diluted in PBS to the target inoculum of 1.0×10^7 CFU/mL. The actual bacterial counts were determined by plating dilutions onto nutrient agar (NA) plates followed by 20-24 h incubation and colony counting. The actual CFU counts were 1.04×10^7 CFU/mL.
S. aureus (USA300 MRSA, BAA-1556) dermal infection model. Groups of 5 female ICR mice weighing 24±2 g were used. Animals were anesthetized with etomidate-lipuro emulsion (20 mg/10 mL) at 20 mg/kg by intravenous (IV) injection, and then the fur on the back was removed by an electric shaver, and the epidermal layer was disrupted with an abrasive paper. Mice were inoculated topically (TOP) on the wound area with S. aureus (MRSA, BAA-1556) suspension, 5 μL/mouse. The target inoculation density was 5×10^4 CFU/mouse and the actual inoculum count 5.2×10^4 CFU/mouse. Animals were housed separately after infection. Compound 6027 in DMSO at 1% was administered topically (TOP) twice (BID) at 1 and 7 h post infection. Reference control agent, fusidic acid cream at 20 mg/gram (2%), was administered TOP BID at 1 and 7 h post infection. One infected and untreated group was sacrificed at 1 h after infection for the initial (baseline) bacterial counts. The dose volumes were 20 μL/mouse for all dosing groups.
Animals were sacrificed at 1 or 25 h after inoculation with CO2 asphyxiation. The infected skin samples of the wound infection (around 2 cm 2 areas) were excised and were homogenized in 1 mL PBS (pH 7.4) with a polytron homogenizer. A 0.1 mL aliquot of each homogenate was used for serial 10-fold dilutions and plated onto NA plates for bacterial enumeration. The bacterial counts (CFU/skin) in skin tissues were calculated and the percentage decrease in counts compared to the corresponding vehicle control (placebo) was calculated with the following formula: Decrease (%)=[(CFU/skin of placebo —CFU/skin of treatment)/(CFU/skin of placebo)]×100%.

[8] = system: Staphylococcus aureus NARSA NRS119; assay: microbe, parasite or virus in culture; assay type: cell-based; conditions: NARSA NRS119

For CC(C)C[C@H](NC(=O)[C@H](CCC1CCCCC1)NC(=O)[C@@H]1CCCN1C(=O)c1ccc(F)cc1)C(=O)NC(C)(C)C(=O)N[C@@H](CC(C)C)C(=O)N[C@@H](CC(C)C)C(=O)NC(C)(C)C(=O)NC(C)(C)C(=O)NCCC(=O)NC1(CN(C)C)CCC1 [Compound 6027, (2S)-2-[(2S)-4-cyclohexyl-2-{[(2S)-1-(4-fluorobenzoyl)pyrrolidin-2-yl]formamido}butanamido]-N-(1-{[(1S)-1-{[(1S)-1-({1-[(1-{[2-({1-[(dimethylamino)methyl]cyclobutyl}carbamoyl)ethyl]carbamoyl}-1-methylethyl)carbamoyl]-1-methylethyl}carbamoyl)-3-methylbutyl]carbamoyl}-3-methylbutyl]carbamoyl}-1-methylethyl)-4-methylpentanamide] ({Benzoyl(4-F)}-P[hCha]L[Aib]LL[Aib][Aib][βAla]-{NH(1-CH2NMe2-cBu)}), the “Acceptor (%)” value [1] was 0.2%, the “Donor (%)” value [1] was 79% and the “Skin extraction (%) (skin penetration)” value [1] was 16%. For the same compound, the logD (physchem [2]) was 4.56, the “MIC of 6027” value [3] was 2 µg/mL and the IC50 [4] was 5.7 nM. The solubility (physchem [5]) was 22 µg/mL (≈ 18.6 µM), the IC50 [6] was 54.2 nM and the “Decrease (%) in CFU/skin vs vehicle control” value [7] was 71%. For the same compound, the “LogCFU/skin after 25 hours (Standard error of the mean − SEM)” value [7] was 6.50 (0.16) LogCFU/skin and the “MIC of 6027” value [8] was 2 µg/mL.
